A word on the EC50: it is the concentration at which the effect is half-maximal. Read a low EC50 as an effect from little substance.

For experiment [1], the target named is T1, human FXR alpha ligand binding domain (Homo sapiens, UniProt Q96RI1).
T1 construct: made in house; host or cells: E. coli BL21(DE3), vector pDEST15
T1 sequence (Q96RI1 187-472 isoform Q96RI1-2): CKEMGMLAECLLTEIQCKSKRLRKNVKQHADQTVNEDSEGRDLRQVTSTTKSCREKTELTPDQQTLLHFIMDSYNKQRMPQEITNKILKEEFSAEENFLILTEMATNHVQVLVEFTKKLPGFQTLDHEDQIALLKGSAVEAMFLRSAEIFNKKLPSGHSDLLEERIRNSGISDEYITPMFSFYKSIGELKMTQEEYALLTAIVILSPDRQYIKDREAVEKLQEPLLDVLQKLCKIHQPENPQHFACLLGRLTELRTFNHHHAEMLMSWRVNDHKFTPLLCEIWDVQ
Briefly: FRET activity assay (ligand mediated cofactor peptide interaction, LANCE). It counts as biochemical. The settings on record: potency range. Here is the method: Determination of a ligand mediated cofactor peptide interaction to quantify ligand binding to the nuclear receptor FXR was performed as follows: Preparation of human FXR alpha ligand binding domain: The human FXRalpha LBD was expressed in E. coli strain BL21(DE3) as an N-terminally GST tagged fusion protein. The DNA encoding the FXR ligand binding domain was cloned into vector pDEST15 (Invitrogen). Expression was under control of an IPTG inducible T7 promoter. The amino acid boundaries of the ligand binding domain were amino acids 187-472 of Database entry NM_005123 (RefSeq). Expression and purification of the FXR-LBD: An overnight preculture of a transformed E. coli strain was diluted 1:20 in LB-Ampicillin medium and grown at 30° C. to an optical density of OD600=0.4-0.6. Gene expression was then induced by addition of 0.5 mM IPTG. Cells were incubated an additional 6 h at 30° C., 180 rpm. Cells were collected by centrifugation (7000×g, 7 min, room temperature). Per liter of original cell culture, cells were resuspended in 10 mL lysis buffer (50 mM Glucose, 50 mM Tris pH 7.9, 1 mM EDTA and 4 mg/mL lysozyme) and left on ice for 30 min. Cells were then subjected to sonication and cell debris removed via centrifugation (22000×g, 30 min, 4° C.). Per 10 mL of supernatant 0.5 mL prewashed Glutathione 4B sepharose slurry (Qiagen) was added and the suspension kept slowly rotating for 1 h at 4° C. Glutathione 4B sepharose beads were pelleted by centrifugation (2000×g, 15 sec, 4° C.) and washed twice in wash buffer (25 mM Tris, 50 mM KCl, 4 mM MgCl2 and 1M NaCl). The pellet was resuspended in 3 mL elution buffer per liter of original culture (elution buffer: 20 mM Tris, 60 mM KCl, 5 mM MgCl2 and 80 mM glutathione added immediately prior to use as powder). The suspension was left rotating for 15 min at 4° C., the beads pelleted and eluted again with half the volume of elution buffer than the first time. The eluates were pooled and dialysed overnight in 20 mM Hepes buffer (pH 7.5) containing 60 mM KCl, 5 mM MgCl2 as well as 1 mM dithiothreitol and 10% (v/v) glycerol. The protein was analysed by SDS-Page.
The method measures the ability of putative ligands to modulate the interaction between the purified bacterial expressed FXR ligand binding domain (LBD) and a synthetic biotinylated peptide based on residues 676-700 of SRC-1 (LCD2, 676-700). […] The ligand binding domain (LBD) of FXR was expressed as fusion protein with GST in BL-21 cells using the vector pDEST15. Cells were lysed by sonication, and the fusion proteins purified over glutathione sepharose (Pharmacia) according to the manufacturers instructions. For screening of compounds for their influence on the FXR-peptide interaction, the Perkin Elmer LANCE technology was applied. This method relies on the binding dependent energy transfer from a donor to an acceptor fluorophor attached to the binding partner of interest. For ease of handling and reduction of background from compound fluorescence LANCE technology makes use of generic fluorophore labels and time resolved detection Assays were done in a final volume of 25 μL in a 384 well plate, in a Tris-based buffer (20 mM Tris-HCl pH 7.5; 60 mM KCl, 5 mM MgCl2; 35 ng/μL BSA), containing 20-60 ng/well recombinantly expressed FXR-LBD fused to GST, 200-600 nM N-terminally biotinylated peptide, representing SRC1 aminoacids 676-700, 200 ng/well Streptavidin-xIAPC conjugate (Prozyme) and 6-10 ng/well Eu W1024—antiGST (Perkin Elmer). DMSO content of the samples was kept at 1%. After generation of the assay mix and diluting the potentially FXR modulating ligands, the assay was equilibrated for one hour in the dark at room temperature in FIA-plates black 384 well (Greiner). The LANCE signal was detected by a Perkin Elmer VICTOR2V™ Multilabel Counter. The results were visualized by plotting the ratio between the emitted light at 665 and 615 nm.
For orientation: TR-FRET usually uses a lanthanide donor and a delayed reading to cut background.

Experiment [2] addresses T2, FXR ligand binding domain (Homo sapiens, UniProt Q96RI1).
T2 construct: expressed in transfected cells; host or cells: HEK293 cells (DSMZ), transient transfection of pCMV-BD-FXR-LBD
T2 sequence (Q96RI1 187-472 isoform Q96RI1-2): T1 sequence (Q96RI1 187-472 isoform Q96RI1-2)
As to the kind of experiment: Mammalian One Hybrid (M1H) Gal4 reporter assay in HEK293 cells. It counts as cell-based. The settings on record: potency range. Here is the method:
Determination of a ligand mediated Gal4 promoter driven transactivation to quantify ligand binding mediated activation of FXR was performed as follows: The cDNA part encoding the FXR ligand binding domain was cloned into vector pCMV-BD (Stratagene) as a fusion to the yeast GAL4 DNA binding domain under the control of the CMV promoter. The amino acid boundaries of the ligand binding domain were amino acids 187-472 of Database entry NM_005123 (RefSeq). The plasmid pFR-Luc (Stratagene) was used as the reporter plasmid, containing a synthetic promoter with five tandem repeats of the yeast GAL4 binding sites, driving the expression of the Photinus pyralis (American firefly) luciferase gene as the reporter gene. In order to improve experimental accuracy the plasmid pRL-CMV (Promega) was cotransfected. pRL-CMV contains the constitutive CMV promoter, controlling the expression of the Renilla reniformis luciferase. All Gal4 reporter gene assays were done in HEK293 cells (obtained from DSMZ, Braunschweig, Germany) grown in MEM with L-Glutamine and Earle's BSS supplemented with 10% fetal bovine serum, 0.1 mM nonessential amino acids, 1 mM sodium pyruvate, and 100 units Penicillin/[…] per mL at 37° C. in 5% CO2. Medium and supplements were obtained from Invitrogen. For the assay, […] were plated per well in 96 well plates in 100 μL per well MEM without Phenol Red and L-Glutamine and with Earle's BSS supplemented with 10% charcoal/dextran treated FBS (HyClone, South Logan, Utah), 0.1 mM nonessential amino acids, 2 mM glutamine, 1 mM sodium pyruvate, and 100 units Penicillin/[…] per mL, incubated at 37° C. in 5% CO2. The following day the cells were >90% confluence. Medium was removed and cells were transiently transfected using 20 μL per well of a OptiMEM—polyethylene-imine-based transfection-reagent (OptiMEM, Invitrogen; Polyethyleneimine, Aldrich Cat No. 40, 827-7) including the three plasmids described above. MEM with the same composition as used for plating cells was added 2-4 h after addition of transfection mixture. Then compound stocks, prediluted in MEM were added (final vehicle concentration not exceeding 0.1%). Cells were incubated for additional 16 h before firefly and renilla luciferase activities were measured sequentially in the same cell extract using a Dual-Light-Luciferase-Assay system (Dyer et al., Anal. Biochem. 2000, 282, 158-161). All experiments were done in triplicates.

In the case of `Cn1nc(C(=O)O)c2ccc(C3CC3c3ccc(OCc4c(-c5c(Cl)cccc5Cl)noc4C4CC4)cc3Cl)cc21` (racemic) [Example 13, 6-(2-(2-chloro-4-((5-cyclopropyl-3-(2,6-dichlorophenyl)isoxazol-4-yl)methoxy)phenyl)cyclopropyl)-1-methyl-1H-indazole-3-carboxylic acid], the EC50 in experiment [1] and in experiment [2] was 10 to 100 nM in each case.
Consider `O=C(O)c1cccc(C2CC2c2ccc(OCc3c(-c4c(Cl)cccc4Cl)noc3C3CC3)cc2Cl)c1` (single isomer, unassigned; (+)) [Example 5b, (+)-3-(2-(2-chloro-4-((5-cyclopropyl-3-(2,6-dichlorophenyl)isoxazol-4-yl)methoxy)phenyl)cyclopropyl)benzoic acid], for which the EC50 in experiment [1] and in experiment [2] was above 100 nM each time.
Turning to `O=C(O)c1ccc(C2CC2c2ccc(OCc3c(-c4c(Cl)cccc4Cl)noc3C3CC3)cc2Cl)cc1` (single isomer, unassigned; (+)) [Example 12b, (+)-4-(2-(2-chloro-4-((5-cyclopropyl-3-(2,6-dichlorophenyl)isoxazol-4-yl)methoxy)phenyl)cyclopropyl)benzoic acid], the EC50 in experiment [1] and in experiment [2] was above 100 nM each time.
Turning to `Cn1nc(C(=O)O)c2ccc(C3CC3c3ccc(OCc4c(-c5c(Cl)cccc5Cl)noc4C4CC4)cc3Cl)cc21` (single isomer, unassigned; (+)) [Example 13a, (+)-6-(2-(2-chloro-4-((5-cyclopropyl-3-(2,6-dichlorophenyl)isoxazol-4-yl)methoxy)phenyl)cyclopropyl)-1-methyl-1H-indazole-3-carboxylic acid], the EC50 in experiment [1] and in experiment [2] was 10 to 100 nM throughout.
For the compound `O=C(O)c1cccc(C2CC2c2ccc(OCc3c(-c4c(Cl)cccc4Cl)noc3C3CC3)cc2Cl)c1` (single isomer, unassigned; (-)) [Example 5a, (−)-3-(2-(2-chloro-4-((5-cyclopropyl-3-(2,6-dichlorophenyl)isoxazol-4-yl)methoxy)phenyl)cyclopropyl)benzoic acid], the EC50 in experiment [1] was below 10 nM; in experiment [2], 10 to 100 nM.
The corresponding values for `Cn1nc(C(=O)O)c2ccc(C3CC3c3ccc(OCc4c(-c5c(Cl)cccc5Cl)noc4C4CC4)cc3Cl)cc21` (single isomer, unassigned; (-)) [Example 13b, (−)-6-(2-(2-chloro-4-((5-cyclopropyl-3-(2,6-dichlorophenyl)isoxazol-4-yl)methoxy)phenyl)cyclopropyl)-1-methyl-1H-indazole-3-carboxylic acid] are below 10 nM and below 10 nM.
Turning to `O=C(O)c1cccc(C2CC2c2ccc(OCc3c(-c4c(Cl)cncc4Cl)noc3C3CC3)cc2Cl)c1` (centres unmarked) [Example 1, 3-(2-(2-chloro-4-((5-cyclopropyl-3-(3,5-dichloropyridin-4-yl)isoxazol-4-yl)methoxy)phenyl)cyclopropyl)-benzoic acid], the EC50 in experiment [1] and in experiment [2] was 10 to 100 nM each time.
Turning to `O=C(O)c1cccc(C2CC2c2ccc(OCc3c(-c4c(Cl)c[n+]([O-])cc4Cl)noc3C3CC3)cc2Cl)c1` (centres unmarked) [Example 2, 4-(4-((4-(2-(3-carboxyphenyl)cyclopropyl)-3-chlorophenoxy)methyl)-5-cyclopropylisoxazol-3-yl)-3,5-dichloropyridine 1-oxide], the half-maximal effective concentration (EC50) in experiment [1] and in experiment [2] was 10 to 100 nM each time.
Take `CC(C)c1nnn(-c2c(Cl)cccc2Cl)c1COc1ccc(C2CC2c2cccc(C(=O)O)c2)c(Cl)c1` (centres unmarked) [Example 3, 3-(2-(2-chloro-4-((1-(2,6-dichlorophenyl)-4-isopropyl-1H-1,2,3-triazol-5-yl)methoxy)phenyl)cyclopropyl)benzoic acid]: the EC50 in experiment [1] and in experiment [2] was 10 to 100 nM in each case.
Regarding `CC(C)c1onc(-c2c(Cl)cccc2Cl)c1COc1ccc(C2CC2c2cccc(C(=O)O)c2)c(Cl)c1` (centres unmarked) [Example 6, 3-(2-(2-chloro-4-((3-(2,6-dichlorophenyl)-5-isopropylisoxazol-4-yl)methoxy)phenyl)cyclopropyl)benzoic acid], the concentration giving a half-maximal response (EC50) in experiment [1] and in experiment [2] was 10 to 100 nM in each case.
In the case of `Clc1cc(OCc2c(-c3c(Cl)cccc3Cl)noc2C2CC2)ccc1C1CC1c1ccc(-c2nnn[nH]2)nc1` (centres unmarked) [Example 7, 4-((4-(2-(6-(1H-tetrazol-5-yl)pyridin-3-yl)cyclopropyl)-3-chlorophenoxy)methyl)-5-cyclopropyl-3-(2,6-dichlorophenyl)isoxazole], the EC50 in experiment [1] and in experiment [2] was 10 to 100 nM each time.
Turning to `O=C(O)c1ccc(C2CC2c2ccc(OCc3c(-c4c(Cl)cccc4Cl)noc3C3CC3)cc2Cl)cn1` (centres unmarked) [Example 8, 5-(2-(2-chloro-4-((5-cyclopropyl-3-(2,6-dichlorophenyl)isoxazol-4-yl)methoxy)-phenyl)cyclopropyl)picolinic acid], the EC50 in experiment [1] and in experiment [2] was 10 to 100 nM in each case.
`O=C(NCCS(=O)(=O)O)c1ccc(C2CC2c2ccc(OCc3c(-c4c(Cl)cccc4Cl)noc3C3CC3)cc2Cl)cc1` (centres unmarked) [Example 15, 2-(4-(2-(2-chloro-4-((5-cyclopropyl-3-(2,6-dichlorophenyl)isoxazol-4-yl)methoxy)phenyl)cyclopropyl)benzamido)ethanesulfonic acid]: the values for the EC50 in experiment [1] and in experiment [2] were 10 to 100 nM and above 100 nM, respectively.

The values are drawn from patent publication US8952042B2, “FXR (NR1H4) binding and activity modulating compounds” (Phenex Pharmaceuticals AG, priority 2009, dated 2015).
